Assay results as given in ChEMBL document CHEMBL2375263, “Identification and design of a novel series of MGAT2 inhibitors” (Bioorg Med Chem Lett, 2013).

How the values were obtained:
[1] = target: T1, Acyl-CoA wax alcohol acyltransferase 2 (Homo sapiens, UniProt Q6E213); experiment: Inhibition of human recombinant AWAT2 expressed in insect cell membrane using cetyl alcohol and [14C]oleoyl coenzyme A as substrate after 10 to 15 mins by liquid scintillation counting
T1 sequence (Q6E213 whole entry): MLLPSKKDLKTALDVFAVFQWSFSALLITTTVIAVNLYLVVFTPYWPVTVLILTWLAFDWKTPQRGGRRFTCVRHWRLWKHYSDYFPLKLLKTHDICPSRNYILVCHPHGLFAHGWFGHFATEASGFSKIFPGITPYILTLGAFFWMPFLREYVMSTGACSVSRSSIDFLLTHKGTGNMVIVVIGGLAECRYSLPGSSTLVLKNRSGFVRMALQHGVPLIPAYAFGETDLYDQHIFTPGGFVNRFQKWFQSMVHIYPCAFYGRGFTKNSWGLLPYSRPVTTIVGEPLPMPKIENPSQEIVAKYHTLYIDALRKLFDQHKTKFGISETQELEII

[2] = Time dependent inhibition of CYP450 (unknown origin); format: ADME; conditions: human
[3] = target: T2, Acyl-CoA wax alcohol acyltransferase 1 (Homo sapiens, UniProt Q58HT5); experiment: Inhibition of human recombinant AWAT1 expressed in insect cell membrane using palmitoleyl alcohol and [14C]stearoyl coenzyme A as substrate after 10 to 15 mins by liquid scintillation counting
T2 sequence (Q58HT5 whole entry): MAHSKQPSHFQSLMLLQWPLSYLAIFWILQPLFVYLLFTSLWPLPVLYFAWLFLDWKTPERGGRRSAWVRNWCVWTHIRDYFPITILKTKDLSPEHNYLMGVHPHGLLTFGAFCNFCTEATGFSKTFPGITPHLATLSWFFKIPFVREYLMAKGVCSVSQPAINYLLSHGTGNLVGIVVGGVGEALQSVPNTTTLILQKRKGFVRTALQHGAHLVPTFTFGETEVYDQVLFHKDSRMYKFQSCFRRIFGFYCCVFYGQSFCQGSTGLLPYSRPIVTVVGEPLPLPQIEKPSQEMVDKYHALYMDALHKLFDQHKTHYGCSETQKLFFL

[4] = target: T3, Diacylglycerol O-acyltransferase 1 (Homo sapiens, UniProt O75907); experiment: Inhibition of human recombinant DGAT1 expressed in Sf9 cells using dioleoyl-sn-glycerol and [14C]oleoyl coenzyme A as substrate after 30 mins by liquid scintillation counting
T3 sequence (O75907 whole entry): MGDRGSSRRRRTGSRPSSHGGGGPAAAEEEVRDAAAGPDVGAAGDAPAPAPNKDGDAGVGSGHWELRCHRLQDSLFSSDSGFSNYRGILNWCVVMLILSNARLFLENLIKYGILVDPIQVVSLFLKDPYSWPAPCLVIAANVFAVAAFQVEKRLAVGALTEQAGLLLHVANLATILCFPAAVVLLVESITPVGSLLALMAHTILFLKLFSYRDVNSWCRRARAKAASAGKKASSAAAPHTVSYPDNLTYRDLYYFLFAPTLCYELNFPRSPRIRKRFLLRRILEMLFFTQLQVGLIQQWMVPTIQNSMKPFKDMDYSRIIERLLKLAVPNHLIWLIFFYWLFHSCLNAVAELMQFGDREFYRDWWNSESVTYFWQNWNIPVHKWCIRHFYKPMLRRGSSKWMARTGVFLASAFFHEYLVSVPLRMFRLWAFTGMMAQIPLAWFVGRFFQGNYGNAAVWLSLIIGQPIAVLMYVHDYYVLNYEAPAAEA

[5] = Intrinsic clearance in human liver microsomes as 1 umol/l measured up to 30 mins by LC-MS analysis; format: ADME, Microsome; conditions: read-out: CLH
[6] = Apparent permeability from apical side to basolateral side of human Caco2 cells at 10 umol/l measured up to 120 mins by LCMS analysis; format: ADME, cell-based; conditions: Caco-2
[7] = Inhibition of CYP450 (unknown origin); format: ADME; conditions: human
[8] = target: T4, Diacylglycerol O-acyltransferase 2 (Homo sapiens, UniProt Q96PD7); experiment: Inhibition of human recombinant DGAT2 using dioleoyl-sn-glycerol and [14C]oleoyl coenzyme A as substrate after 30 mins by liquid scintillation counting
T4 sequence (Q96PD7 whole entry): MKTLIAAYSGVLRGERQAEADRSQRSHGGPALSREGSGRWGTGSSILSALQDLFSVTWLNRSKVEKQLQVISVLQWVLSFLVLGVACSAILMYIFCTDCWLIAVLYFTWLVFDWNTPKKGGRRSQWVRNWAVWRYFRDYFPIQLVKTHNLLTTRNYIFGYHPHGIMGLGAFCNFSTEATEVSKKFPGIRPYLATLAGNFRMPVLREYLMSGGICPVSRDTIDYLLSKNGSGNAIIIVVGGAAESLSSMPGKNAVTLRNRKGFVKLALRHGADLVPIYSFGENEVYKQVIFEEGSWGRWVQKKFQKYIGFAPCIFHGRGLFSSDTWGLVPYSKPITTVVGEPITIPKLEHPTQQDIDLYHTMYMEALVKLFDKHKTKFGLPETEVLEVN

[9] = Dissociation constant, pKa of the compound; format: physicochemical
[10] = Lipophilicity, log D of the compound at pH 7.4; format: physicochemical; conditions: buffer
Liver microsomes = experiment: Ratio of compound-glutathione adduct formation to clozapine-glutathione adduct formation in human liver microsomes at 10 umol/l after 30 mins by glutathione trapping method; format: ADME, Microsome; conditions: 0.5 h, 10 µM
[11] = Tmax in mouse at 100 mg/kg, po; format: ADME, organism-based; set-up: dose 100 mg/kg, route oral; conditions: in vivo
Mus musculus [12] = experiment: Antiobesity activity in C57Bl6J mouse assessed as inhibition of corn oil-induced triacylglycerol excursion at 5 mg/kg, po administered at 30 mins post corn-oil challenge measured after 2 hrs by oral lipid tolerance test relative to control; format: functional
Mus musculus [13] = experiment: Antiobesity activity in C57Bl6J mouse assessed as inhibition of corn oil-induced triacylglycerol excursion at 150 mg/kg, po administered at 30 mins post corn-oil challenge measured after 2 hrs by oral lipid tolerance test relative to control; format: functional

| Structure (SMILES) | IC50 [1] | inhibition (INH) [2] | IC50 [3] | IC50 [4] | microsomal CLint at 1 µM [5] | Papp A→B at 2 h, 10 µM [6] | inhibition (INH) [7] | IC50 [8] | pKa [9] | logD [10] | Ratio (Liver microsomes) | Tmax [11] | inhibition in vivo at 5 mg/kg (Mus musculus [12]) | inhibition in vivo at 150 mg/kg (Mus musculus [13]) |
| --- | --- | --- | --- | --- | --- | --- | --- | --- | --- | --- | --- | --- | --- | --- |
| CCC1(C)C(=O)Nc2ccc(S(=O)(=O)Nc3ccc(F)cc3F)cc2C(=O)N1C (racemic) | > 100 µM | Not Active | > 100 µM | > 10 µM | 9 µL/min/mg | 8.1 ×10⁻⁶ cm/s | Not Active | > 10 µM | 7.1 |  |  |  |  |  |
| CCC1NC(=O)c2cc(S(=O)(=O)Nc3ccccc3)ccc2NC1=O (racemic) |  |  |  |  |  |  |  |  |  | 1.6 |  |  |  |  |
| CC1(C)NC(=O)c2cc(S(=O)(=O)Nc3ccccc3)ccc2NC1=O |  |  |  |  |  |  |  |  |  | 1.6 |  |  |  |  |
| CCC1(C)NC(=O)c2cc(S(=O)(=O)Nc3ccccc3Cl)ccc2NC1=O (racemic) | > 100 µM | Not Active | > 100 µM | > 10 µM | < 5 µL/min/mg | 6.4 ×10⁻⁶ cm/s | Not Active | > 10 µM | 7.2 | 1.9 | 0.1 |  |  |  |
| CC[C@]1(C)NC(=O)c2cc(S(=O)(=O)Nc3ccc(OC(F)F)cc3)ccc2NC1=O | > 100 µM | Not Active | > 100 µM | > 10 µM | 2.8 µL/min/mg | 1.1 ×10⁻⁶ cm/s | Not Active | > 10 µM | 7.9 |  |  |  |  |  |
| CCC1(C)NC(=O)c2cc(S(=O)(=O)Nc3ccc(C(F)(F)F)cc3)ccc2NC1=O (racemic) |  |  |  |  |  |  |  |  |  | 3.1 |  |  |  |  |
| O=C1NC2(CCCC2)C(=O)Nc2ccc(S(=O)(=O)Nc3ccc(Cl)cc3)cc21 |  |  |  |  |  |  |  |  |  | 3 |  |  |  |  |
| CCC1(C)NC(=O)c2cc(S(=O)(=O)Nc3ccccc3)ccc2NC1=O (racemic) | > 100 µM | Not Active | > 100 µM | > 10 µM | < 5 µL/min/mg | 2.4 ×10⁻⁶ cm/s | Not Active | > 10 µM | 8.7 | 1.9 |  |  |  |  |
| CCC1(C)NC(=O)c2cc(S(=O)(=O)Nc3ccc(OC(F)F)cc3)ccc2NC1=O (racemic) |  |  |  |  |  |  |  |  |  | 2.3 |  |  |  |  |
| CCC1(CC)NC(=O)c2cc(S(=O)(=O)Nc3ccc(F)cc3F)ccc2NC1=O |  |  |  |  |  |  |  |  |  | 2.2 |  |  |  |  |
| CCC1(C)NC(=O)c2cc(S(=O)(=O)NC3CCCCC3)ccc2NC1=O (racemic) |  |  |  |  |  |  |  |  |  | 2 |  |  |  |  |
| CCCC1(C)NC(=O)c2cc(S(=O)(=O)Nc3ccc(F)cc3F)ccc2NC1=O (racemic) |  |  |  |  |  |  |  |  |  | 2.2 |  |  |  |  |
| CCC1(C)NC(=O)c2cc(S(=O)(=O)Nc3ccc(OC)cc3)ccc2NC1=O (racemic) | > 100 µM | Not Active | > 100 µM | > 10 µM | 16 µL/min/mg | 1.5 ×10⁻⁶ cm/s | Not Active | > 10 µM | 5.6 | 1.8 |  |  |  |  |
| CC[C@]1(C)NC(=O)c2cc(S(=O)(=O)Nc3ccc(C(F)(F)F)cc3)ccc2NC1=O | > 100 µM | Not Active | > 100 µM | > 10 µM | < 5 µL/min/mg | 3.1 ×10⁻⁶ cm/s | Not Active | > 10 µM | 6.9 |  |  |  |  |  |
| CCC1(CC)CNc2ccc(S(=O)(=O)Nc3ccc(F)cc3F)cc2C(=O)N1 | > 100 µM | Not Active | > 100 µM | > 10 µM | 40 µL/min/mg | 16 ×10⁻⁶ cm/s | Not Active | > 10 µM | 8 |  | 1.8 |  |  |  |
| CCC1(C)NC(=O)c2cc(S(=O)(=O)Nc3ccc(F)cc3F)ccc2NC1=O (racemic) |  |  |  |  |  |  |  |  |  | 1.8 |  |  |  |  |
| CC[C@]1(C)NC(=O)c2cc(S(=O)(=O)Nc3ccc(F)cc3F)ccc2NC1=O | > 100 µM | Not Active | > 100 µM | > 10 µM | < 5 µL/min/mg | 3.3 ×10⁻⁶ cm/s | Not Active | > 10 µM | 7.3 |  |  | 30 min | 116% | 68% |
| CCC1(C)NC(=O)c2cc(S(=O)(=O)Nc3ccc(Cl)cc3)ccc2N(C)C1=O (racemic) | > 100 µM | Not Active | > 100 µM | > 10 µM | 7 µL/min/mg | 20 ×10⁻⁶ cm/s | Not Active | > 10 µM | 7.9 |  |  |  |  |  |
| CCC1(C)NC(=O)c2cc(S(=O)(=O)NCc3ccccc3)ccc2NC1=O (racemic) |  |  |  |  |  |  |  |  |  | 1.8 |  |  |  |  |
| CCC1(C)NC(=O)c2cc(S(=O)(=O)N(C)c3ccccc3)ccc2NC1=O (racemic) | > 100 µM | Not Active | > 100 µM | > 10 µM | 221 µL/min/mg | 36 ×10⁻⁶ cm/s | Not Active | > 10 µM |  |  | 0 |  |  |  |
